Reference: ChEMBL document CHEMBL3872220, “Amphiphilic xanthones as a potent chemical entity of anti-mycobacterial agents with membrane-targeting properties” (Eur J Med Chem, 2016)
Converted amounts (≈) assume the structure as drawn.

What was measured:
[1] = tested on: Mycobacterium tuberculosis variant bovis; assay: Antimycobacterial activity against Mycobacterium bovis BCG ATCC 35734 assessed as ATP leakage by measuring extracellular ATP at 1 MIC measured at 9 hrs post dose by luciferase reporter gene assay; assay type: functional, Mycobacterium tuberculosis variant bovis BCG
[2] = tested on: Mycobacterium tuberculosis variant bovis; assay: Antimycobacterial activity against Mycobacterium bovis BCG ATCC 35734 assessed as ATP leakage by measuring intracellular ATP at 0.5 times MIC measured at 24 hrs post dose by luciferase reporter gene assay; assay type: functional, Mycobacterium tuberculosis variant bovis BCG
[3] = tested on: Mycobacterium tuberculosis variant bovis; assay: Antimycobacterial activity against Mycobacterium bovis BCG ATCC 35734 assessed as ATP leakage by measuring extracellular ATP at 1 MIC measured at 24 hrs post dose by luciferase reporter gene assay; assay type: functional, Mycobacterium tuberculosis variant bovis BCG
[4] = tested on: Mycobacterium tuberculosis variant bovis; assay: Antimycobacterial activity against Mycobacterium bovis BCG ATCC 35734 assessed as ATP leakage by measuring extracellular ATP at 0.5 times MIC measured at 24 hrs post dose by luciferase reporter gene assay; assay type: functional, Mycobacterium tuberculosis variant bovis BCG
[5] = tested on: Mycobacterium tuberculosis variant bovis; assay: Antimycobacterial activity against Mycobacterium bovis BCG ATCC 35734 assessed as ATP leakage by measuring intracellular ATP at 0.5 times MIC measured at 9 hrs post dose by luciferase reporter gene assay; assay type: functional, Mycobacterium tuberculosis variant bovis BCG
[6] = tested on: Mycobacterium tuberculosis variant bovis; assay: Antimycobacterial activity against Mycobacterium bovis BCG ATCC 35734 assessed as ATP leakage by measuring extracellular ATP at 4 times MIC measured at 9 hrs post dose by luciferase reporter gene assay; assay type: functional, Mycobacterium tuberculosis variant bovis BCG
[7] = tested on: Mycobacterium tuberculosis variant bovis; assay: Antimycobacterial activity against Mycobacterium bovis BCG ATCC 35734 assessed as ATP leakage by measuring extracellular ATP at 2 times MIC measured at 9 hrs post dose by luciferase reporter gene assay; assay type: functional, Mycobacterium tuberculosis variant bovis BCG
[8] = tested on: Mycobacterium tuberculosis variant bovis; assay: Antimycobacterial activity against Mycobacterium bovis BCG ATCC 35734 assessed as ATP leakage by measuring extracellular ATP at 0.5 times MIC measured immediatey after addition of compounds by luciferase reporter gene assay; assay type: functional, Mycobacterium tuberculosis variant bovis BCG
[9] = tested on: Mycobacterium tuberculosis variant bovis; assay: Antimycobacterial activity against Mycobacterium bovis BCG ATCC 35734 assessed as ATP leakage by measuring intracellular ATP at 4 times MIC measured immediatey after addition of compounds by luciferase reporter gene assay; assay type: functional, Mycobacterium tuberculosis variant bovis BCG
[10] = tested on: Mycobacterium tuberculosis variant bovis; assay: Antimycobacterial activity against Mycobacterium bovis BCG ATCC 35734 assessed as ATP leakage by measuring extracellular ATP at 4 times MIC measured immediatey after addition of compounds by luciferase reporter gene assay; assay type: functional, Mycobacterium tuberculosis variant bovis BCG
[11] = tested on: Mycobacterium tuberculosis variant bovis; assay: Antimycobacterial activity against Mycobacterium bovis BCG ATCC 35734 assessed as ATP leakage by measuring extracellular ATP at 2 times MIC measured immediatey after addition of compounds by luciferase reporter gene assay; assay type: functional, Mycobacterium tuberculosis variant bovis BCG
[12] = tested on: Mycobacterium tuberculosis variant bovis; assay: Antimycobacterial activity against Mycobacterium bovis BCG ATCC 35734 assessed as ATP leakage by measuring extracellular ATP at 1 MIC measured immediatey after addition of compounds by luciferase reporter gene assay; assay type: functional, Mycobacterium tuberculosis variant bovis BCG
[13] = tested on: Mycobacterium tuberculosis variant bovis; assay: Antimycobacterial activity against Mycobacterium bovis BCG ATCC 35734 after 5 days by broth dilution assay; assay type: functional; settings: ATCC 35734, 120 h
[14] = tested on: Mycobacterium tuberculosis variant bovis; assay: Antimycobacterial activity against Mycobacterium bovis BCG ATCC 35734 assessed as ATP leakage by measuring extracellular ATP at 0.5 times MIC measured at 9 hrs post dose by luciferase reporter gene assay; assay type: functional, Mycobacterium tuberculosis variant bovis BCG
[15] = tested on: Mycobacterium tuberculosis variant bovis; assay: Antimycobacterial activity against Mycobacterium bovis BCG ATCC 35734 assessed as ATP leakage by measuring intracellular ATP at 4 times MIC measured at 6 hrs post dose by luciferase reporter gene assay; assay type: functional, Mycobacterium tuberculosis variant bovis BCG
[16] = tested on: Mycobacterium tuberculosis variant bovis; assay: Antimycobacterial activity against Mycobacterium bovis BCG ATCC 35734 assessed as ATP leakage by measuring intracellular ATP at 2 times MIC measured at 6 hrs post dose by luciferase reporter gene assay; assay type: functional, Mycobacterium tuberculosis variant bovis BCG
[17] = tested on: Mycobacterium tuberculosis variant bovis; assay: Antimycobacterial activity against Mycobacterium bovis BCG ATCC 35734 assessed as ATP leakage by measuring extracellular ATP at 4 times MIC measured at 6 hrs post dose by luciferase reporter gene assay; assay type: functional, Mycobacterium tuberculosis variant bovis BCG
[18] = tested on: Mycobacterium tuberculosis variant bovis; assay: Antimycobacterial activity against Mycobacterium bovis BCG ATCC 35734 assessed as ATP leakage by measuring extracellular ATP at 2 times MIC measured at 6 hrs post dose by luciferase reporter gene assay; assay type: functional, Mycobacterium tuberculosis variant bovis BCG
[19] = tested on: Mycobacterium tuberculosis variant bovis; assay: Antimycobacterial activity against Mycobacterium bovis BCG ATCC 35734 assessed as ATP leakage by measuring intracellular ATP at 4 times MIC measured at 3 hrs post dose by luciferase reporter gene assay; assay type: functional, Mycobacterium tuberculosis variant bovis BCG
[20] = tested on: Mycobacterium tuberculosis variant bovis; assay: Antimycobacterial activity against Mycobacterium bovis BCG ATCC 35734 assessed as ATP leakage by measuring intracellular ATP at 1 MIC measured at 3 hrs post dose by luciferase reporter gene assay; assay type: functional, Mycobacterium tuberculosis variant bovis BCG
[21] = tested on: Mycobacterium tuberculosis variant bovis; assay: Antimycobacterial activity against Mycobacterium bovis BCG ATCC 35734 assessed as ATP leakage by measuring extracellular ATP at 2 times MIC measured at 3 hrs post dose by luciferase reporter gene assay; assay type: functional, Mycobacterium tuberculosis variant bovis BCG
[22] = tested on: Mycobacterium tuberculosis variant bovis; assay: Antimycobacterial activity against Mycobacterium bovis BCG ATCC 35734 assessed as ATP leakage by measuring extracellular ATP at 0.5 times MIC measured at 3 hrs post dose by luciferase reporter gene assay; assay type: functional, Mycobacterium tuberculosis variant bovis BCG
[23] = tested on: Mycobacterium tuberculosis variant bovis; assay: Antimycobacterial activity against Mycobacterium bovis BCG ATCC 35734 assessed as ATP leakage by measuring intracellular ATP at 4 times MIC measured at 1 hr post dose by luciferase reporter gene assay; assay type: functional, Mycobacterium tuberculosis variant bovis BCG
[24] = tested on: Mycobacterium tuberculosis variant bovis; assay: Antimycobacterial activity against Mycobacterium bovis BCG ATCC 35734 assessed as ATP leakage by measuring intracellular ATP at 2 times MIC measured at 1 hr post dose by luciferase reporter gene assay; assay type: functional, Mycobacterium tuberculosis variant bovis BCG
[25] = tested on: Mycobacterium tuberculosis variant bovis; assay: Antimycobacterial activity against Mycobacterium bovis BCG ATCC 35734 assessed as ATP leakage by measuring intracellular ATP at 1 MIC measured at 1 hr post dose by luciferase reporter gene assay; assay type: functional, Mycobacterium tuberculosis variant bovis BCG
[26] = tested on: Mycobacterium tuberculosis variant bovis; assay: Antimycobacterial activity against Mycobacterium bovis BCG ATCC 35734 assessed as ATP leakage by measuring intracellular ATP at 0.5 times MIC measured at 1 hr post dose by luciferase reporter gene assay; assay type: functional, Mycobacterium tuberculosis variant bovis BCG
[27] = tested on: Mycobacterium tuberculosis variant bovis; assay: Antimycobacterial activity against Mycobacterium bovis BCG ATCC 35734 assessed as ATP leakage by measuring extracellular ATP at 4 times MIC measured at 1 hr post dose by luciferase reporter gene assay; assay type: functional, Mycobacterium tuberculosis variant bovis BCG
[28] = tested on: Mycobacterium tuberculosis variant bovis; assay: Antimycobacterial activity against Mycobacterium bovis BCG ATCC 35734 assessed as ATP leakage by measuring extracellular ATP at 2 times MIC measured at 1 hr post dose by luciferase reporter gene assay; assay type: functional, Mycobacterium tuberculosis variant bovis BCG
[29] = tested on: Mycobacterium tuberculosis variant bovis; assay: Antimycobacterial activity against Mycobacterium bovis BCG ATCC 35734 assessed as ATP leakage by measuring extracellular ATP at 0.5 times MIC measured at 1 hr post dose by luciferase reporter gene assay; assay type: functional, Mycobacterium tuberculosis variant bovis BCG
[30] = tested on: Mycobacterium tuberculosis variant bovis; assay: Induction of membrane integrity impairment in Mycobacterium bovis BCG ATCC 35734 assessed as pH shift at 60 uM measured after 3 hrs by CMFDA dye based fluorescence spectroscopic method relative to control; assay type: functional, Mycobacterium tuberculosis variant bovis BCG
[31] = tested on: Mycobacterium tuberculosis variant bovis; assay: Antimycobacterial activity against Mycobacterium bovis BCG ATCC 35734 assessed as ATP leakage by measuring intracellular ATP at 1 MIC measured at 24 hrs post dose by luciferase reporter gene assay; assay type: functional, Mycobacterium tuberculosis variant bovis BCG
[32] = tested on: Mycobacterium tuberculosis variant bovis; assay: Antimycobacterial activity against Mycobacterium bovis BCG ATCC 35734 assessed as ATP leakage by measuring intracellular ATP at 4 times MIC measured at 24 hrs post dose by luciferase reporter gene assay; assay type: functional, Mycobacterium tuberculosis variant bovis BCG

Structure (SMILES) | Activity [1] [%] | Activity [2] [%] | Activity [3] [%] | Activity [4] [%] | Activity [5] [%] | Activity [6] [%] | Activity [7] [%] | Activity [8] [%] | Activity [9] [%] | Activity [10] [%] | Activity [11] [%] | Activity [12] [%] | MIC90 [13] [µM] | Activity [14] [%] | Activity [15] [%] | Activity [16] [%] | Activity [17] [%] | Activity [18] [%] | Activity [19] [%] | Activity [20] [%] | also measured
CCN(CC)CCCCOc1cc2oc3cc(OCCCCN(CC)CC)c(OC)c(CC=C(C)C)c3c(=O)c2c(O)c1CC=C(C)C | 85.3 | 65.3 | 86.4 | 34.7 | 52.8 | 94.5 | 92.8 | 0 | 89.5 | 10.5 | 3.6 | 2 | 6.4 (≈ 4.26 µg/mL) | 47.2 | 6.7 | 8.1 | 93.3 | 91.9 | 10.4 | 33.9 | Activity [21]: 83.6%; Activity [22]: 27.4%; Activity [23]: 34%; Activity [24]: 57.6%; Activity [25]: 75.1%; Activity [26]: 79.2%; Activity [27]: 66%; Activity [28]: 42.4%; Activity [29]: 20.8%; Activity [30]: 68.7%; Activity [31]: 13.6%; Activity [32]: 6.8%
CCCN(CCC)CCCCOc1cc2oc3cc(OCCCCN(CCC)CCC)c(OC)c(CC=C(C)C)c3c(=O)c2c(O)c1CC=C(C)C | 48.5 | 84.4 | 37.5 | 15.6 | 74.6 | 84 | 75.3 | 0 | 90.6 | 9.4 | 2.2 | 2.5 | 3.2 (≈ 2.31 µg/mL) | 25.4 | 30.3 | 36.8 | 69.7 | 63.2 | 57.9 | 75.8 | Activity [21]: 44.2%; Activity [22]: 20.1%; Activity [23]: 83.2%; Activity [24]: 89.9%; Activity [25]: 86.8%; Activity [26]: 74.9%; Activity [27]: 16.8%; Activity [28]: 10.1%; Activity [29]: 25.1%; Activity [30]: 61.6%; Activity [31]: 62.5%; Activity [32]: 14.8%
COc1c(OCCCCN2CCOCC2)cc2oc3cc(OCCCCN4CCOCC4)c(CC=C(C)C)c(O)c3c(=O)c2c1CC=C(C)C | 13.5 | 95.2 | 4.5 | 4.8 | 92.7 | 58.4 | 33.1 | 0 | 85.7 | 14.3 | 8.1 | 4.7 | 30 (≈ 20.8 µg/mL) | 7.3 | 37.2 | 72.6 | 62.8 | 27.4 | 66.6 | 92.3 | Activity [21]: 20%; Activity [22]: 8.6%; Activity [23]: 74.6%; Activity [24]: 83.3%; Activity [25]: 88.5%; Activity [26]: 79.8%; Activity [27]: 25.4%; Activity [28]: 16.7%; Activity [29]: 20.2%; Activity [30]: 30%; Activity [31]: 95.5%; Activity [32]: 31.5%
